In ChEMBL document CHEMBL1145343, “Inhibition of kinesin motor proteins by adociasulfate-2” (J Med Chem, 2006) one finds IC50 data, which are given here for one molecule.

The target of test [1] is T1, Kinesin-like protein KIF11 (Homo sapiens, UniProt P52732).
T1 sequence (P52732 whole entry): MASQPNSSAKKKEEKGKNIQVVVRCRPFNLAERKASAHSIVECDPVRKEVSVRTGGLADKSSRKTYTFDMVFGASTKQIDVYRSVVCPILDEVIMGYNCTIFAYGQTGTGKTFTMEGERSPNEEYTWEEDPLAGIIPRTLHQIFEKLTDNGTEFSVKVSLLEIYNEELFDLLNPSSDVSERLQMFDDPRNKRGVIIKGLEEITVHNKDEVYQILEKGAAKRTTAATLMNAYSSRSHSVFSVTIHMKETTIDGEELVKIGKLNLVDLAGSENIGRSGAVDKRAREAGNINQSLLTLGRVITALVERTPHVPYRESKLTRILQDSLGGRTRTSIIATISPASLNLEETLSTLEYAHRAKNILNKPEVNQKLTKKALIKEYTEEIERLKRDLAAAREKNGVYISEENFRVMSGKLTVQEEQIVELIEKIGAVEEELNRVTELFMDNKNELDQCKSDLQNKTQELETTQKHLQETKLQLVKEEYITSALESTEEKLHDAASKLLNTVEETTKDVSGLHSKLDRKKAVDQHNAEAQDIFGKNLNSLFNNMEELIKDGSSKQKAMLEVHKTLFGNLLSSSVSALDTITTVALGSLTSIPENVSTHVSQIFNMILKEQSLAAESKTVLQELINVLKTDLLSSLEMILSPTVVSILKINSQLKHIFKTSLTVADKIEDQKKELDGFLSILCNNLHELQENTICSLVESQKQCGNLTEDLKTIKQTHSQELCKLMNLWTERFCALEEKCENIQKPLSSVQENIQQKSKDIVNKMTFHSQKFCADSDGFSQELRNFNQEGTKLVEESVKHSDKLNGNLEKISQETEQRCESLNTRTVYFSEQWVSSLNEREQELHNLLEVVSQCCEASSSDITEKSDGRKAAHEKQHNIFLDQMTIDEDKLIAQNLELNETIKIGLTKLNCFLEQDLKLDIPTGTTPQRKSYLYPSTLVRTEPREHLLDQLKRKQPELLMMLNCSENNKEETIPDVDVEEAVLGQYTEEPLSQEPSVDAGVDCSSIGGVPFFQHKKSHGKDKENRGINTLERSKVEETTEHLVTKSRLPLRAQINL
Description: Inhibition of kinesin ATPase activity by enzyme-linked inorganic phosphate detection assay with 5 mins pre-incubation.

For test [2], the target named is T1, Kinesin-like protein KIF11. Put plainly: Inhibition of kinesin ATPase activity by enzyme-linked inorganic phosphate detection assay without preincubation.

With `CC1(C)CCC[C@]2(C)O[C@H]3CC[C@@]4(C)[C@@H](CC[C@]5(C)[C@@H]4CC[C@]4(C)c6c(OS(=O)(=O)O)ccc(OS(=O)(=O)O)c6C[C@@H]54)[C@]3(C)CC[C@@H]12` [ADOCIASULFATE-2], the IC50 (commonly the concentration needed to halve the response being measured) came out at 7.3 µM in test [1] and 13.9 µM in test [2].
